Patent publication US9573947B2, “Salt of pyrazoloquinoline derivative, and crystal thereof” (Eisai R&D Management Co., Ltd., priority 2013, dated 2017)

Columns and labels:
[1] = Dissolution test in fasted state simulated intestinal fluid; format: physicochemical; details: for CONCENTRATION (dissolution): fasted state simulated intestinal fluid pH 6.5, 37° C., 50 rpm, in terms of compound (I); for concentration achieved relative to the concentration of compound (I): dissolution test, fasted state simulated intestinal fluid
Method: Each of compound (I) (50 mg), the compound of Example 1 (30 mg) and the compound of Example 2 (30 mg) was filled into a hydroxypropyl methylcellulose capsule, together with an equal weight of lactose hydrate. A 708-DS from Agilent Technologies was equipped with small stirring paddles and small vessels, and used as a dissolution test apparatus. Each drug-filled capsule was added to 50 ml of fasted state simulated intestinal fluid (a phosphate buffer pH 6.5 containing 0.75 mM lecithin and 3 mM sodium taurocholate) which had been warmed to 37° C. The drug was dissolved by rotating the stirring paddle at a speed of 50 rpm. The dissolved solution was sampled over time and the drug concentrations were measured by HPLC. Such dissolution tests using fasted state simulated intestinal fluid are often used to evaluate the dissolution and absorption characteristics of drugs (e.g., Takano et al., “Oral absorption of poorly water-soluble drugs: computer simulation of fraction absorbed in humans from a miniscale dissolution test”, Pharm Res., vol. 23, pp. 1144-1156, 2006). The results were shown in Table 1 and the graph in FIG. 12.

[2] = Test on oral absorption characteristics in dogs; format: in vivo, beagle dogs; details: for AREA UNDER PLASMA CONCENTRATION-TIME CURVE, MEAN: mean of 4 beagle dogs; for PLASMA CONCENTRATION MEAN: mean of dogs

SMILES: COc1ncc(C)c(-c2ccc3c(c2)[nH]c(=O)c2cnn([C@H]4CCOC4)c23)c1C.O=S(=O)(O)c1ccccc1 [Example 2, (S)-7-(2-methoxy-3,5-dimethylpyridin-4-yl)-1-(tetrahydrofuran-3-yl)-1H-pyrazolo[4,3-c]quinolin-4(5H)-one Monobenzenesulfonate Salt]
- CONCENTRATION (dissolution) ([1]; 6 minutes): 0 ng/mL
- CONCENTRATION (dissolution) ([1]; 10 minutes): 500 ng/mL
- CONCENTRATION (dissolution) ([1]; 15 minutes): 7300 ng/mL
- CONCENTRATION (dissolution) ([1]; 20 minutes): 9300 ng/mL
- CONCENTRATION (dissolution) ([1]; 30 minutes): 10200 ng/mL
- CONCENTRATION (dissolution) ([1]; 60 minutes): 10700 ng/mL
- CONCENTRATION (dissolution) ([1]; 90 minutes): 10600 ng/mL
- CONCENTRATION (dissolution) ([1]; 120 minutes): 10700 ng/mL
- CONCENTRATION (dissolution) ([1]; 180 minutes): 9400 ng/mL
- CONCENTRATION (dissolution) ([1]; 240 minutes): 9000 ng/mL
- concentration achieved relative to the concentration of compound (I) [1]: about 2 fold

SMILES: COc1ncc(C)c(-c2ccc3c(c2)[nH]c(=O)c2cnn([C@H]4CCOC4)c23)c1C.O=C(O)/C=C\C(=O)O [Example 1, (S)-7-(2-methoxy-3,5-dimethylpyridin-4-yl)-1-(tetrahydrofuran-3-yl)-1H-pyrazolo[4,3-c]quinolin-4(5H)-one Monomaleate Salt]
- PLASMA CONCENTRATION ([2]; Dog 1, 0.25 hours, oral capsule, 100 mg in terms of the free form): BQL
- PLASMA CONCENTRATION ([2]; Dog 1, 0.5 hours, oral capsule, 100 mg in terms of the free form): 428 ng/mL
- PLASMA CONCENTRATION ([2]; Dog 1, 1 hour, oral capsule, 100 mg in terms of the free form): 506 ng/mL
- PLASMA CONCENTRATION ([2]; Dog 1, 2 hours, oral capsule, 100 mg in terms of the free form): 343 ng/mL
- PLASMA CONCENTRATION ([2]; Dog 1, 4 hours, oral capsule, 100 mg in terms of the free form): 219 ng/mL
- PLASMA CONCENTRATION ([2]; Dog 1, 6 hours, oral capsule, 100 mg in terms of the free form): 158 ng/mL
- PLASMA CONCENTRATION ([2]; Dog 1, 8 hours, oral capsule, 100 mg in terms of the free form): 134 ng/mL
- PLASMA CONCENTRATION ([2]; Dog 1, 24 hours, oral capsule, 100 mg in terms of the free form): 102 ng/mL
- AREA UNDER PLASMA CONCENTRATION-TIME CURVE ([2]; Dog 1, oral capsule, 100 mg in terms of the free form): 3830 ng·h/mL
- PLASMA CONCENTRATION ([2]; Dog 2, 0.25 hours, oral capsule, 100 mg in terms of the free form): BQL
- PLASMA CONCENTRATION ([2]; Dog 2, 0.5 hours, oral capsule, 100 mg in terms of the free form): 140 ng/mL
- PLASMA CONCENTRATION ([2]; Dog 2, 1 hour, oral capsule, 100 mg in terms of the free form): 457 ng/mL
- PLASMA CONCENTRATION ([2]; Dog 2, 2 hours, oral capsule, 100 mg in terms of the free form): 469 ng/mL
- PLASMA CONCENTRATION ([2]; Dog 2, 4 hours, oral capsule, 100 mg in terms of the free form): 313 ng/mL
- PLASMA CONCENTRATION ([2]; Dog 2, 6 hours, oral capsule, 100 mg in terms of the free form): 224 ng/mL
- PLASMA CONCENTRATION ([2]; Dog 2, 8 hours, oral capsule, 100 mg in terms of the free form): 199 ng/mL
- PLASMA CONCENTRATION ([2]; Dog 2, 24 hours, oral capsule, 100 mg in terms of the free form): 23 ng/mL
- AREA UNDER PLASMA CONCENTRATION-TIME CURVE ([2]; Dog 2, oral capsule, 100 mg in terms of the free form): 4160 ng·h/mL
- PLASMA CONCENTRATION ([2]; Dog 3, 0.5 hours, oral capsule, 100 mg in terms of the free form): 377 ng/mL
- PLASMA CONCENTRATION ([2]; Dog 3, 1 hour, oral capsule, 100 mg in terms of the free form): 422 ng/mL
- PLASMA CONCENTRATION ([2]; Dog 3, 2 hours, oral capsule, 100 mg in terms of the free form): 337 ng/mL
- PLASMA CONCENTRATION ([2]; Dog 3, 4 hours, oral capsule, 100 mg in terms of the free form): 272 ng/mL
- PLASMA CONCENTRATION ([2]; Dog 3, 6 hours, oral capsule, 100 mg in terms of the free form): 217 ng/mL
- PLASMA CONCENTRATION ([2]; Dog 3, 8 hours, oral capsule, 100 mg in terms of the free form): 147 ng/mL
- PLASMA CONCENTRATION ([2]; Dog 3, 24 hours, oral capsule, 100 mg in terms of the free form): 20 ng/mL
- AREA UNDER PLASMA CONCENTRATION-TIME CURVE ([2]; Dog 3, oral capsule, 100 mg in terms of the free form): 3490 ng·h/mL
- PLASMA CONCENTRATION ([2]; Dog 4, 0.25 hours, oral capsule, 100 mg in terms of the free form): BQL
- PLASMA CONCENTRATION ([2]; Dog 4, 1 hour, oral capsule, 100 mg in terms of the free form): 422 ng/mL
- PLASMA CONCENTRATION ([2]; Dog 4, 2 hours, oral capsule, 100 mg in terms of the free form): 401 ng/mL
- PLASMA CONCENTRATION ([2]; Dog 4, 4 hours, oral capsule, 100 mg in terms of the free form): 322 ng/mL
- PLASMA CONCENTRATION ([2]; Dog 4, 6 hours, oral capsule, 100 mg in terms of the free form): 248 ng/mL
- PLASMA CONCENTRATION ([2]; Dog 4, 8 hours, oral capsule, 100 mg in terms of the free form): 210 ng/mL
- PLASMA CONCENTRATION ([2]; Dog 4, 24 hours, oral capsule, 100 mg in terms of the free form): 74 ng/mL
- AREA UNDER PLASMA CONCENTRATION-TIME CURVE ([2]; Dog 4, oral capsule, 100 mg in terms of the free form): 4540 ng·h/mL
- concentration at 0.25 h ([2]; beagle, dog, plasma, po, 100 mg, Dog 3, 0.25 hours, oral capsule, 100 mg in terms of the free form): 279 ng/mL
- concentration at 0.5 h ([2]; beagle, dog, plasma, po, 100 mg, Dog 4, 0.5 hours, oral capsule, 100 mg in terms of the free form): 6 ng/mL
- AREA UNDER PLASMA CONCENTRATION-TIME CURVE, MEAN ([2]; oral capsule, 100 mg in terms of the free form, Monomaleate Salt): 4000 ± 450 ng·h/mL
- AREA UNDER PLASMA CONCENTRATION-TIME CURVE, MEAN ([2]; oral capsule, 100 mg in terms of the free form, listed as EXAMPLE 1, Monomaleate Salt): 4000 ng·h/mL
- PLASMA CONCENTRATION MEAN ([2]; 0.5 hours, oral capsule, 100 mg in terms of the free form): 315 ng/mL
- PLASMA CONCENTRATION MEAN ([2]; 1 hour, oral capsule, 100 mg in terms of the free form): 452 ng/mL
- PLASMA CONCENTRATION MEAN ([2]; 2 hours, oral capsule, 100 mg in terms of the free form): 388 ng/mL
- PLASMA CONCENTRATION MEAN ([2]; 4 hours, oral capsule, 100 mg in terms of the free form): 282 ng/mL
- PLASMA CONCENTRATION MEAN ([2]; 6 hours, oral capsule, 100 mg in terms of the free form): 212 ng/mL
- PLASMA CONCENTRATION MEAN ([2]; 8 hours, oral capsule, 100 mg in terms of the free form): 172 ng/mL
- PLASMA CONCENTRATION MEAN ([2]; 24 hours, oral capsule, 100 mg in terms of the free form): 55 ng/mL
- absorption rate compared with compound (I) ([2]; oral capsule to beagle dogs, crossover): higher
- CONCENTRATION (dissolution) ([1]; 6 minutes): 6400 ng/mL
- CONCENTRATION (dissolution) ([1]; 10 minutes): 11800 ng/mL
- CONCENTRATION (dissolution) ([1]; 15 minutes): 20800 ng/mL
- CONCENTRATION (dissolution) ([1]; 20 minutes): 23300 ng/mL
- CONCENTRATION (dissolution) ([1]; 30 minutes): 27900 ng/mL
- CONCENTRATION (dissolution) ([1]; 60 minutes): 25000 ng/mL
- CONCENTRATION (dissolution) ([1]; 90 minutes): 23900 ng/mL
- CONCENTRATION (dissolution) ([1]; 120 minutes): 22100 ng/mL
- CONCENTRATION (dissolution) ([1]; 180 minutes): 18800 ng/mL
- CONCENTRATION (dissolution) ([1]; 240 minutes): 18800 ng/mL
- concentration achieved relative to the concentration of compound (I) [1]: 4- to 5 fold
